Measurements reported in patent US9988380B2, “Quorum sensing inhibitors” (priority 2013, dated 2018).
Like-named read-outs stand apart in the source and are kept apart here.

Legend:
LasR = target: T1, LasR (Pseudomonas aeruginosa, UniProt P25084); assay: AHL competition assay between QSI and OdDHL in heterologous E. coli lasB-gfp(ASV) strain; format: cell-based, P. aeruginosa
T1 construct: expressed in transfected cells; host or cells: E. coli lasB-gfp(ASV) reporter strain
Method: E. coli Competition Assay between QSI compounds and OdDHL. The E. coli lasB-gfp(ASV) reporter strain was used for the competition assay, which was performed in a similar manner to the P. aeruginosa LasR inhibition assay. OdDHL and the QSI to be studied were added to the wells of a microtitre plate containing ABTGC media. Wells without OdDHL and/or QSI were included as controls. An overnight culture of E. coli lasB-gfp(ASV) strain, grown in LB medium at 37° C. with shaking, was diluted to an OD600 of 0.2, and 100 μl of bacterial suspension was added to each well of the microtitre plate. […] GFP and OD600 readings were obtained as described above for the P. aeruginosa LasR inhibition assay.
AHL Competition Assay Using the Heterologous E. coli lasB-gfp (ASV) strain. The five QSI candidates were tested for their specificity in inhibiting the LasR receptor by incubating these QSIs with the E. coli lasB-gfp (ASV) reporter strain. LasR is under the control of the Lac promoter and is constitutively expressed, and only LasR can activate gfp expression in this system.

pqsA-gfp(ASV) expression = assay: Inhibition of the PQS QS system, pqsA-gfp(ASV) reporter in PAO1 wild-type and lasR mutant; format: cell-based, P. aeruginosa
Method: Inhibition of the Rhl and PQS QS systems in wild-type PAO1 and PAO1 lasR mutant. Wild-type P. aeruginosa PAO1 strains harboring either the rhlA-gfp(ASV) reporter or the pqsA-gfp(ASV) reporter, and a P. aeruginosa PAO1 lasR mutant harboring either the rhlA-gfp(ASV) reporter or the pqsA-gfp(ASV) reporter were used for this experiment (Refer to FIG. 11 for strain information). Overnight cultures of these four strains were diluted 100-fold in ABTGC media within 96-well microtitre plates to a final volume of 200 μL per well. Each of the five QSIs was added in triplicate to a final concentration of 50 μM. 0.5% DMSO was used as a negative control. The microtitre plate was incubated at 37° C. in a Tecan Infinite 200 Pro plate reader where GFP and OD600 readings were measured at 15 min intervals.
Effect of QSIs on Rhl and Pqs Quorum-Sensing Systems. In order to address the problem of the specificity of present compounds, the five identified QSI compounds were tested to see if they had any effect on the rhl and pqs systems. The five QSIs were tested against a PAO1 wild-type and a PAO1 lasR mutant harboring either the rhlA-gfp (ASV) bioreporter or the pqsA-gfp (ASV) bioreporter. The rhlA system is dependent on the RhlR/I system. By doing so, we were able to determine if a QSI is able to inhibit the other two QS systems (i.e. rhl and pqs) in a lasR-dependent/independent manner (FIG. 8).

[1] = system: P. aeruginosa PAO1 biofilms; assay: Glass slide biofilm assay for observation of eDNA release; format: cell-based; settings: ABTG medium containing 25 μM G1, 24 h, PI staining
Method: Glass Slide Biofilm Assay for Observation of eDNA Release. The glass slide biofilm assay was performed (Liu et al. 2010 Synergistic activities of an efflux pump inhibitor and iron chelators against Pseudomonas aeruginosa growth and biofilm formation. Antimicrob Agents Chemother 54:3960-3963). Briefly, gfp-tagged P. aeruginosa PAO1 biofilms were cultivated in 50 ml BD falcon tubes containing 15 ml ABTG medium. A sterile 24 mm×60 mm glass cover slide was inserted into each falcon tube for supporting biofilm growth. G1 (10 μm) was added into the biofilm medium to examine its impact on P. aeruginosa PAO1 biofilm formation. DMSO was added alone to the medium as control. Biofilms were incubated at 37° C. without shaking. 2 μM propidium iodide (Sigma-Aldrich) was added to biofilm cultures to stain extracellular DNA for 5 min after 24-hour growth. After that, biofilm attached glass slides were observed by confocal laser scanning microscopy (CLSM).

[2] = system: LasR-controlled GFP expression in P. aeruginosa PAO1 lasB-gfp(ASV) strain; assay: P. aeruginosa QS inhibition assay with lasB-gfp(ASV) reporter strain; format: cell-based, Pseudomonas aeruginosa
Method: P. aeruginosa QS inhibition assays. Test compounds were dissolved in 100% DMSO and mixed with ABTGC media, after which they were added to the first column of wells of a 96-well microtitre plate (Nunc) to give a final concentration of 100 μM in a final volume of 200 μl. 100 μL of ABTGC media was then added to the remaining wells in the plate and serial two-fold dilutions of the inhibitors were done by adding 100 μL of the preceding inhibitor-containing well to the subsequent one. The final column was left without inhibitor as a control. Next, an overnight culture of P. aeruginosa lasB-gfp(ASV) strain, grown in LB medium at 37° C. with shaking, was diluted to an optical density (OD) at 600 nm of 0.2, and 100 μl of bacterial suspension was added to each well of the microtitre plate. […] The microtitre plate was incubated at 37° C. in a Tecan Infinite 200 Pro plate reader (Tecan Group Ltd., Männedorf, Switzerland). GFP fluorescence (excitation at 485 nm, emission at 535 nm) and cell density (OD600) measurements were collected at 15 min intervals for at least 14 h. The P. aeruginosa Rhl and Pqs inhibition assays were performed in a similar manner to the LasR inhibition assay.
Inhibition Assay with the P. aeruginosa lasB-gfp(ASV) strain. In the preliminary screen, the 22 selected QSI candidates were screened for their ability to inhibit QS-controlled green fluorescent protein (GFP) expression in the P. aeruginosa lasB-gfp(ASV) strain. Elastase (encoded by the lasB gene) is a virulence factor that is controlled by LasR and therefore a good indicator for LasR activity. […] For ease of identification, each compound was designated a short compound identification code based on its well position in the shipment in place of its standard IUPAC name.
The dose-response curves of these 5 QSI candidates when incubated with the P. aeruginosa PAO1 lasB-gfp(ASV) strain are shown in FIG. 3. GFP expression, which was measured in relative fluorescence units, was normalized by dividing the GFP value by the corresponding OD600 value measured at that time-point. ‘Control’ refers to the PAO1 strain grown without the presence of QSI, and as expected, it had the highest GFP per OD values. For these five compounds, dose-dependent inhibition of lasB-gfp expression was observed, i.e. the higher the concentration of QSI that was present, the greater the inhibition of gfp expression.
IC50 Value Comparisons of the Five QSI Candidates. The slope of the curve for each QSI was calculated based on its respective dose-response curves (from FIG. 3) and plotted against the log inhibitor concentration. The slope is indicative of the biosynthesis rate of GFP due to AHL induction. The half maximal inhibitory concentrations (IC50) of the five QSI candidates were calculated using the Graphpad Prism 6 software package (GraphPad Software Inc., CA, USA).

T1 sequence (P25084 whole entry): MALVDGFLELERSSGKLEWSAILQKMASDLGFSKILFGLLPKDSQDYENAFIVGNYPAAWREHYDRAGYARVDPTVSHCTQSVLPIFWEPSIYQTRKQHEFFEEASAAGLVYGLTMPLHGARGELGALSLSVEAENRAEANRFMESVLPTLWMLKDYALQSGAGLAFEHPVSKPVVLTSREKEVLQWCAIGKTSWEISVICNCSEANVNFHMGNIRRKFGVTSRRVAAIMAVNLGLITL

N=c1[nH]c(=O)c2nn[nH]c2[nH]1 [Compound G1, 5-imino-4,6-dihydro-3H-1,2,3-triazolo[5,4-d]pyrimidin-7-one]
relative fluorescence (GFP/OD600) (LasR; 320 nM OdDHL with 100 μM G1): 711.5
relative fluorescence (GFP/OD600) (LasR; 100 μM G1 and no OdDHL): 438.1
specific inhibition of LasR activity in the competition assay (LasR; E. coli lasB-gfp(ASV), with OdDHL): specifically inhibit LasR activity
concentration sufficient in inhibiting OdDHL-LasR induction of gfp expression (LasR; in the presence of 320 nM OdDHL): 1.56 µM
inhibition at 100 µM (LasR; read-out: inhibition as compared to the control without G1, 100 μM G1, in the absence of OdDHL): 30.2%
inhibition at 100 µM (LasR; read-out: inhibition as compared to the control without G1, 100 μM G1, in the presence of 320 nM OdDHL): 46.9%
inhibition of pqsA-gfp expression (pqsA-gfp(ASV) expression; PAO1 lasR mutant, 50 μM QSI): 24.4%
inhibition of pqsA-gfp expression (pqsA-gfp(ASV) expression; wild-type PAO1, 50 μM QSI): 57.5%
extracellular DNA (eDNA) in biofilms [1]: less eDNA was observed
IC50 of lasB-gfp expression, range in words ([2]; P. aeruginosa PAO1 lasB-gfp(ASV)): high nanomolar range
effect on cell growth ([2]; P. aeruginosa lasB-gfp(ASV) strain, OD600): without affecting cell growth
inhibition of LasR-controlled GFP expression ([2]; P. aeruginosa lasB-gfp(ASV) strain, 0.78125-50 μM): inhibit LasR-controlled GFP expression in a dose-dependent manner
IC50 ([2]; Pseudomonas aeruginosa, PAO1, read-out: IC50 of lasB-gfp expression): 640 nM
